Test results reported in BindingDB's records for doi:10.1021/acs.jmedchem.6b00993 (Purdue University, 2016).

Target: Serine/threonine-protein phosphatase 5 (Homo sapiens) (UniProt P53041)
Assay: Inhibition of His-tagged PP5 (unknown origin) expressed in Escherichia coli BL21 cells using para-nitrophenyl phosphate as substrate incubated for 5 to 10 mins by microplate reader based spectrophotometric analysis

Chain of Serine/threonine-protein phosphatase 5 (Homo sapiens) (P53041 whole entry, looked up): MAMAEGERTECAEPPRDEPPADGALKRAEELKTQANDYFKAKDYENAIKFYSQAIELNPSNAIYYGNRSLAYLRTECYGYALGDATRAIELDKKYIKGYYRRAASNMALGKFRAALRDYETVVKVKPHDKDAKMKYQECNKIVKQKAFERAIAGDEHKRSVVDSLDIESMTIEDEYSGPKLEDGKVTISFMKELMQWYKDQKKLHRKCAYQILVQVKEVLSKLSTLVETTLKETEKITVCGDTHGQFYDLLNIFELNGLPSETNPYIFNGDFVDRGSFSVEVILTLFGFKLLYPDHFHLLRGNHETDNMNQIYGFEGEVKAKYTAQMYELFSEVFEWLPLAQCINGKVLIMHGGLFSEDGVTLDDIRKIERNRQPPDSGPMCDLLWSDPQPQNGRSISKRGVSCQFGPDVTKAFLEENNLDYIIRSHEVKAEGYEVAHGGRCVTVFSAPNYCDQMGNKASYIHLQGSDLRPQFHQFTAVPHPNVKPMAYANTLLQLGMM

| IC50 [µM] | Compound |
| --- | --- |
| > 200 | O=C(Nc1nc2ccccc2s1)C(c1ccccc1)S(=O)(=O)O (centres undefined) |
| > 200 | O=C(Nc1cnc2ccccc2c1)C(c1ccccc1)S(=O)(=O)O (centres undefined) |
| > 200 | O=C(Nc1ccc(N2CCOCC2)cc1)C(c1ccccc1)S(=O)(=O)O (centres undefined) |
| > 200 | O=C(Nc1ccc2nc(C(F)(F)F)[nH]c2c1)C(c1ccccc1)S(=O)(=O)O (centres undefined) |
